From patent US10206944B2, “Chondroitin for use in medicine” (ALTERGON S.A., priority 2012, dated 2019)

Assays:
Aggrecan = test: Real-Time PCR gene expression in human chondrocytes: aggrecan; assay type: cell-based; conditions: 1% w/v, ratio to untreated control
Procedure: To evaluate the biological effects of chondroitin on human chondrocyte cultures, the expression of a set of genes considered key to establishing the phenotype, and suitable markers for evaluating the quality of the tissue generated, was determined. The study was conducted on chondrocytes prepared from human cartilage, as reported in Example 2, the cells being grown in the presence of chondroitin or chondroitin sulphate. Using a standard procedure, 5*10^4 cells per well were seeded in a 24-well multiwell plate. The chondrocytes were grown in DMEM containing 1% w/v of chondroitin or chondroitin sulphate (endotoxin content ≤0.1 EU/mg). The cells were stimulated for 4, 7 and 10 days (Ishak et al., International J. of Pediatric Otorhinolaryngology, 2011, 75: 835-840), after which the RNA was extracted with Trizol Reagent, as described in the kit manual (Life Technologies Ltd, Milan, Italy). A qualitative morphological analysis of the cell culture was also conducted at the various times, in parallel with RNA extraction, by observing the corresponding samples at 4, 7 and 10 days under the optical microscope. The cells seeded at the three different times were observed under the microscope, and the images that best represented the cell growth conditions were acquired using a time-lapse videomicroscopy workstation. After RNA extraction, reverse transcription was performed with a total of 1 μg RNA and then with amplification by Real-Time PCR of genes which are specific markers for chondrocytes (Table 3).
Genes connected with matrix production, such as aggrecan, type I collagen, type II collagen and the Sox9 gene, the expression of which is closely correlated with the expression of type II collagen, were analysed as specific markers for differentiation and characterisation of chondrocytes. (Akiyama H., Mod Rheumatol., 2008, 18(3): 213-9; Yang et al., J. of Orthopaedic Res. 2011).
The gene expression of said markers on human chondrocytes cultured in basic medium (control) and with chondroitin treatment (C) or chondroitin sulphate treatment (CS) was analysed on cell cultures in the second and third growth phases.
The results of the gene expression analysis were reported as the average of at least 3 independent experiments for tests conducted in the presence of C or CS, on cells in phases 2 and 3.

[1] = test system: Enterococcus faecalis strain ATCC 19433; test: Inhibition of bacterial growth on plate, E. faecalis; assay type: cell-based
Procedure: The antibacterial activity of chondroitin (C) and chondroitin sulphate (CS) on the growth of Escherichia coli ATCC 25922 and Enterococcus faecalis ATCC 19433 on a solid medium in vitro was examined. The concentrations explored ranged from 40 μg/mL to 40 mg/mL of C or CS as final concentrations in the medium. Brain-heart infusion (Oxoid) was used as culture medium for E. coli ATCC 25922, and M17 (Oxoid) for E. faecalis ATCC 19433; both media were adjusted to the same pH and the same osmolarity before being solidified by adding agar and cooled. 100 μL of a bacterial suspension containing 10^2, 10^3 or 10^4 bacteria/mL was plated as inoculum. […] The number of colonies was then counted on control plates in the absence of the substances under study and on plates at the various concentrations of C and CS. The data from the experiments for the two micro-organisms, conducted in triplicate for each of the conditions, are shown in tables 7 and 8.

HT-1376 cells = test: Flow cytometry of apoptotic and necrotic cells (Annexin V-FITC/PI); assay type: cell-based, human; design: unit not given here; conditions: 48 h, alone or combined
Procedure: Flow cytometry was used to evaluate the quantity of apoptotic or necrotic cells. Fluorescein isothiocyanate (Annexin V-FITC) combined with propidium iodide (PI) was used as marker; the apoptotic cells were Annexin V-FITC positive and PI negative, and the necrotic cells were Annexin V-FITC positive and PI positive. The cells were labelled by incubating them with Annexin V-FITC (Diagnostics MedSystems) and PI (Sigma) in a binding buffer (10 mM HEPES, pH 7.4, 150 mM NaCl, 5 mM KCl, 1 mM MgCl2, 2.5 mM CaCl2) for 10 min at ambient temperature, and then washing and resuspending the cell material in the same buffer. The apoptotic and necrotic cells were analysed by flow cytometry (FACScan, Becton-Dickinson), acquiring an average of 2×10^4 events per sample, with determinations in triplicate on three separate experiments.

[2] = test system: volunteers suffering from dry eye; test: Ophthalmic eyedrops in volunteers suffering from dry eye; assay type: in vivo, human
Procedure: Two ophthalmic preparations were compared: a conventional one based on hyaluronic acid and one based on chondroitin, both at the concentration of 3% w/v in NaCl saline solution at pH 7.4. The eyedrops were prepared in single-dose packaging sterilised in the autoclave. […] The volunteers, of both sexes, aged between 45 and 60 years, were randomised into two groups of 15, and treated with the two types of eyedrops. Under medical control the inflammatory state of the corneal surface was evaluated at the beginning and end of the treatment, and the evaluations of the treated patients relating to tolerability, duration of the wetting effect, and visual alteration after application, were recorded. A scale of 1 to 5 was used for the clinical evaluations and the patients' evaluations, where 5 represents optimum resolution of the pathological condition and its sequelae. […]

[3] = 40 μg/mL, 10 bacteria inoculated
[4] = 40 μg/mL, 100 bacteria inoculated
[5] = 40 μg/mL, 1000 bacteria inoculated
[6] = 400 μg/mL, 10 bacteria inoculated
[7] = 400 μg/mL, 100 bacteria inoculated
[8] = 400 μg/mL, 1000 bacteria inoculated
[9] = 4 mg/mL, 10 bacteria inoculated
[10] = 4 mg/mL, 100 bacteria inoculated
[11] = 4 mg/mL, 1000 bacteria inoculated
[12] = 40 mg/mL (maximum concentration)
[13] = 40 mg/mL, 10 bacteria inoculated
[14] = 40 mg/mL, 100 bacteria inoculated
[15] = 40 mg/mL, 1000 bacteria inoculated
[16] = 0.04 μg/mL of C or CS and 0.15 μg/mL of GEM
[17] = 5.7 μg/mL of C or CS and 1.7 μg/mL of MMC

With “chondroitin sulphate [CS, reference compound]” the “Fold Expression, Aggrecan” value (Aggrecan; phase II, 4 g) was 1.28 ± 0.75, the “Fold Expression, Aggrecan” value (Aggrecan; phase II, 7 g) was 0.72 ± 0.27 and the “Fold Expression, Aggrecan” value (Aggrecan; phase II, 10 g) was 0.45 ± 0.19. The “Fold Expression, Aggrecan” value (Aggrecan; phase III, 4 g) was 0.17 ± 0.10, the “Fold Expression, Aggrecan” value (Aggrecan; phase III, 7 g) was 0.87 ± 0.20 and the “Fold Expression, Aggrecan” value (Aggrecan; phase III, 10 g) was 0.59 ± 0.13. For the same substance, the “CFU after 36 h” value [1, 3] was 8 ± 2 CFU, the “CFU after 36 h” value [1, 4] was 90 ± 7 CFU and the “CFU after 36 h” value [1, 5] was 960 ± 70 CFU. The Inhibition factor ([1]; 400 μg/mL) was 1.3, the “Qualitative valuation of inhibition” value ([1]; 400 μg/mL) was “mild” and the “CFU after 36 h” value [1, 6] was 7 ± 1 CFU. For the same substance, the “CFU after 36 h” value [1, 7] was 80 ± 5 CFU, the “CFU after 36 h” value [1, 8] was 780 ± 70 CFU and the Inhibition factor ([1]; 4 mg/mL) was 2. For the same substance, the “Qualitative valuation of inhibition” value ([1]; 4 mg/mL) was “significant”, the “CFU after 36 h” value [1, 9] was 5 ± 1 CFU and the “CFU after 36 h” value [1, 10] was 48 ± 4 CFU. The “CFU after 36 h” value [1, 11] was 520 ± 30 CFU, the “Qualitative valuation of inhibition” value ([1]; 40 mg/mL) was “high” and the Inhibition factor [1, 12] was 7.4. For the same substance, the “CFU after 36 h” value [1, 13] was 0 CFU, the “CFU after 36 h” value [1, 14] was 15 ± 2 CFU and the “CFU after 36 h” value [1, 15] was 120 ± 10 CFU. The “Cell state: apoptotic advanced” value (HT-1376 cells; [16]) was 5 ± 1, the “Cell state: apoptotic early” value (HT-1376 cells; [16]) was 4 ± 1 and the “Cell state: necrotic” value (HT-1376 cells; [16]) was 23 ± 2. For the same substance, the “Cell state: viable” value (HT-1376 cells; [16]) was 68 ± 4, the “Cell state: apoptotic advanced” value (HT-1376 cells; [17]) was 1 ± 1 and the “Cell state: apoptotic early” value (HT-1376 cells; [17]) was 1 ± 1. The “Cell state: necrotic” value (HT-1376 cells; [17]) was 36 ± 2 and the “Cell state: viable” value (HT-1376 cells; [17]) was 62 ± 4.
For chondroitin, the “Fold Expression, Aggrecan” value (Aggrecan; phase II, 4 g) was 0.08 ± 0.02, the “Fold Expression, Aggrecan” value (Aggrecan; phase II, 7 g) was 1.66±0.22 and the “Fold Expression, Aggrecan” value (Aggrecan; phase II, 10 g) was 1.07 ± 0.15. The “Fold Expression, Aggrecan” value (Aggrecan; phase III, 4 g) was 0.16 ± 0.08, the “Fold Expression, Aggrecan” value (Aggrecan; phase III, 7 g) was 0.79 ± 0.2 and the “Fold Expression, Aggrecan” value (Aggrecan; phase III, 10 g) was 2.3 ± 1.0. For the same substance, the Inhibition factor ([1]; 40 μg/mL) was 1.2, the “Qualitative valuation of inhibition” value ([1]; 40 μg/mL) was “mild” and the “CFU after 36 h” value [1, 3] was 8 ± 2 CFU. The “CFU after 36 h” value [1, 4] was 82 ± 5 CFU, the “CFU after 36 h” value [1, 5] was 870 ± 70 CFU and the Inhibition factor ([1]; 400 μg/mL) was 2. The “Qualitative valuation of inhibition” value ([1]; 400 μg/mL) was “significant”, the “CFU after 36 h” value [1, 6] was 5 ± 1 CFU and the “CFU after 36 h” value [1, 7] was 55 ± 6 CFU. The “CFU after 36 h” value [1, 8] was 480 ± 30 CFU, the Inhibition factor ([1]; 4 mg/mL) was 6.1 and the “Qualitative valuation of inhibition” value ([1]; 4 mg/mL) was “significant”. The “CFU after 36 h” value [1, 9] was 0 CFU, the “CFU after 36 h” value [1, 10] was 18 ± 4 CFU and the “CFU after 36 h” value [1, 11] was 150 ± 4 CFU. The “Qualitative valuation of inhibition” value ([1]; 40 mg/mL) was “high”, the Inhibition factor [1, 12] was 50 and the “CFU after 36 h” value [1, 13] was 0 CFU. For the same substance, the “CFU after 36 h” value [1, 14] was 0 CFU, the “CFU after 36 h” value [1, 15] was 20 ± 2 CFU and the “Cell state: apoptotic advanced” value (HT-1376 cells; [16]) was 7 ± 2. The “Cell state: apoptotic early” value (HT-1376 cells; [16]) was 6 ± 1, the “Cell state: necrotic” value (HT-1376 cells; [16]) was 28 ± 3 and the “Cell state: viable” value (HT-1376 cells; [16]) was 59 ± 2. The “Cell state: apoptotic advanced” value (HT-1376 cells; [17]) was 2 ± 1, the “Cell state: apoptotic early” value (HT-1376 cells; [17]) was 1 ± 1 and the “Cell state: necrotic” value (HT-1376 cells; [17]) was 41 ± 2. The “Cell state: viable” value (HT-1376 cells; [17]) was 56 ± 3, the “Doctor: corneal inflammation” value ([2]; 0 days, 3% w/v eyedrops, scale of 1 to 5, 5 optimum) was 1.1 ± 0.2 and the “Patient: absence of visual alteration” value ([2]; 10 days, scale of 1 to 5) was 4.6 ± 0.2. For the same substance, the “Patient: tolerability” value ([2]; 10 days, scale of 1 to 5) was 4.7 ± 0.2, the “Patient: wetting effect” value ([2]; 10 days, scale of 1 to 5) was 4.8 ± 0.3 and the “Patient: absence of visual alteration” value ([2]; 20 days, scale of 1 to 5) was 4.7 ± 0.1. For the same substance, the “Patient: tolerability” value ([2]; 20 days, scale of 1 to 5) was 4.5 ± 0.5, the “Patient: wetting effect” value ([2]; 20 days, scale of 1 to 5) was 4.6 ± 0.2 and the “Doctor: corneal inflammation” value ([2]; 30 days, 3% w/v eyedrops 4 times a day, scale of 1 to 5) was 4.2 ± 0.3. The “Patient: absence of visual alteration” value ([2]; 30 days, scale of 1 to 5) was 4.8 ± 0.1, the “Patient: tolerability” value ([2]; 30 days, scale of 1 to 5) was 4.8 ± 0.1 and the “Patient: wetting effect” value ([2]; 30 days, scale of 1 to 5) was 4.9 ± 0.1.
